These results are taken from patent publication US11613527B2, “Enzyme inhibitors” (KalVista Pharmaceuticals Limited, priority 2019, dated 2023).

Converted amounts (≈) assume the structure as drawn. Bounds are passed on as bounds.

Data set [1] addresses Human KLK1 (Homo sapiens (Human), UniProt P06870). The data set is described as follows: Determination of the IC50 for KLK1 (fluorogenic substrate H-DVal-Leu-Arg-AFC). The class given is biochemical. In a few lines:
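Inhibition read as initial rate via optical absorbance change at 410 nm, giving IC50. Reactions combined human KLK1, the substrate H-DVal-Leu-Arg-AFC and varied compound concentrations at 25° C.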

A short description of data set [2]: Solubility after 24 hrs in Fasted State Simulated Intestinal Fluid (FaSSIF). It counts as physicochemical. Conditions: Fasted State Simulated Intestinal Fluid (FaSSIF), thermodynamic from solid, 24 hrs at 37° C., nominal concentration 1 mg/mL (as free base). In a few lines:
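Compound at nominal 1 mg/mL (as free base) in freshly prepared FaSSIF, shaken 24 h at 37 °C, ~500 rpm. After centrifugation at 15,000 g for 10 min at 37 °C, dissolved concentration measured by LCMS.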

Data set [3] addresses Human plasma kallikrein (Homo sapiens (Human), UniProt P03952). The experiment in a line: Determination of the IC50 for plasma kallikrein (fluorogenic substrate H-DPro-Phe-Arg-AFC). It counts as biochemical. Conditions: class symbols A-D, read-out: IC50 (human PKal). The method in brief:
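IC50 values come from initial rates, monitored as the change in absorbance at 410 nm, of residual enzyme activity. Test compound was present at various concentrations with the fluorogenic substrate H-DPro-Phe-Arg-AFC, and the reaction was run at 25° C.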

Data set [4] is described as follows: Pharmacokinetics following a single oral dose in male Sprague-Dawley rats. The class given is in vivo. To be noted: rat, nominal 5 mg/kg in 10% DMSO/10% cremophor/80% SWFI, plasma. As for the experimental part: Pharmacokinetic studies of the compounds in Table 14 were performed to assess the pharmacokinetics following a single oral dose in male Sprague-Dawley rats. Two rats were given a single po dose of 5 mL/kg of a nominal 1 mg/mL (5 mg/kg) composition of test compound in 10% DMSO/10% cremophor/80% SWFI vehicle. Following dosing, blood samples were collected over a period of […]. Sample times were 5, 15 and 30 minutes then 1, 2, 4, 6, 8 and 12 hours. Following collection, blood samples were centrifuged and the plasma fraction analysed for concentration of test compound by LCMS.

Data set [5] deals with Human FXIa (Homo sapiens (Human), UniProt P03951). The data set is described as follows: Determination of the % inhibition for FXIa (fluorogenic substrate Z-Gly-Pro-Arg-AFC; 40 μM or IC50). It counts as biochemical. In a few lines: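 Inhibition measured from initial reaction rate, followed as absorbance change at 410 nm, with substrate Z-Gly-Pro-Arg-AFC at 25 °C. Compound tested at a single 40 μM dose for percent inhibition, or across several concentrations to derive IC50 against human FXIa.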
Sequence of Human FXIa (P03951 388-625): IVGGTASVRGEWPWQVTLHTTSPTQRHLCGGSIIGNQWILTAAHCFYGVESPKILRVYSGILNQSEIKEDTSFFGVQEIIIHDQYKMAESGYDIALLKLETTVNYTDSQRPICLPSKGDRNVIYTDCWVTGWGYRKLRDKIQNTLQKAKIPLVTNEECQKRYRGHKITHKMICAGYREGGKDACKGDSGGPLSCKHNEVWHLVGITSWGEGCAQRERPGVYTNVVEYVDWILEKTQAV
Sequence of Human FXIa (P03951 19-387 partner): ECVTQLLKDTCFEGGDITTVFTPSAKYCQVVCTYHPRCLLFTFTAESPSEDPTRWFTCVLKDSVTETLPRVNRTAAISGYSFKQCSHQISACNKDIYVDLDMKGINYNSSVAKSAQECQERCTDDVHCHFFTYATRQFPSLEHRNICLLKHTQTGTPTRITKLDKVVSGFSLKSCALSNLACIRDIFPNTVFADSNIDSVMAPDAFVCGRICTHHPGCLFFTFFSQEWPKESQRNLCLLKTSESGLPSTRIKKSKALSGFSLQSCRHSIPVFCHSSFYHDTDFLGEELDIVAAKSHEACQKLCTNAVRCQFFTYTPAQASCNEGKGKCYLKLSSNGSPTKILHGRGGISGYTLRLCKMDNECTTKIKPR

Sequence of Human KLK1 (P06870 25-262): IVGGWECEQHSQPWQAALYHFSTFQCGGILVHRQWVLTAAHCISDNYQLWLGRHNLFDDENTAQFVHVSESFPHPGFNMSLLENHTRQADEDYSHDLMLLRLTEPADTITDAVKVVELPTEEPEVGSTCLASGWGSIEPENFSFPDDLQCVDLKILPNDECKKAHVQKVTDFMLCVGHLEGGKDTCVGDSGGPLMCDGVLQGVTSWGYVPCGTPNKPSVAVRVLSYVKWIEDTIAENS
Sequence of Human plasma kallikrein (P03952 391-638): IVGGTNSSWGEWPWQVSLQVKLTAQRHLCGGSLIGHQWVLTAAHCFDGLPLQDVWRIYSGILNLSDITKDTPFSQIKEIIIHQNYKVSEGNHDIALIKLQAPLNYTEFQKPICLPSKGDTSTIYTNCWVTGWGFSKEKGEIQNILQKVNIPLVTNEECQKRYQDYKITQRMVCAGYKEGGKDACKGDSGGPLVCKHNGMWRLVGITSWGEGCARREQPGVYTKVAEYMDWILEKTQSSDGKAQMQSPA
Sequence of Human plasma kallikrein (P03952 20-390 partner): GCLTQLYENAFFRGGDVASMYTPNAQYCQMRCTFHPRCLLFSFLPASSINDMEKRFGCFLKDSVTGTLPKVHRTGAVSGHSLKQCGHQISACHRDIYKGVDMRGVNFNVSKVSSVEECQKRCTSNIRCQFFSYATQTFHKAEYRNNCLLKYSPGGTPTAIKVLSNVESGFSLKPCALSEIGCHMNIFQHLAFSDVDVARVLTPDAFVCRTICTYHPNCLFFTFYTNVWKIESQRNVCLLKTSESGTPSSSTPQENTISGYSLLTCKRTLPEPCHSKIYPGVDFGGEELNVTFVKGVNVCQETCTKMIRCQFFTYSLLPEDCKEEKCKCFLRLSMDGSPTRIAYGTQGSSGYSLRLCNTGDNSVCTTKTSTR

For the compound `COCc1nn(Cc2ccc3c(c2)CN(C)CC3)cc1C(=O)NCc1c(-n2cc(C)nn2)ccc(OC)c1F` [Example 2, N-{[2-Fluoro-3-methoxy-6-(4-methyl-1,2,3-triazol-1-yl)phenyl]methyl}-3-(methoxymethyl)-1-[(2-methyl-3,4-dihydro-1H-isoquinolin-7-yl)methyl]pyrazole-4-carboxamide], the half-maximal inhibitory concentration (IC50) (usually the concentration at which inhibition is half-maximal) is above 40 µM in data set [1], below 0.01 µM in data set [3] and above 40 µM in data set [5]. Moreover, the solubility (in general, the dissolved amount per volume that the medium holds) at 24 h in data set [2] was 710 µg/mL (≈ 1330 µM). For the same compound, in data set [4], the highest concentration (Cmax) (in general, the maximum level reached in the sampled fluid or tissue) amounted to 134 ng/mL.
On to `COCc1nn(Cc2ccc3c(c2)CN(C)CC3)cc1C(=O)NCc1c(-n2cnc(C(F)(F)F)n2)ccc(OC)c1F` [Example 13, N-({2-fluoro-3-methoxy-6-[3-(trifluoromethyl)-1,2,4-triazol-1-yl]phenyl}methyl)-3-(methoxymethyl)-1-[(2-methyl-3,4-dihydro-1H-isoquinolin-7-yl)methyl]pyrazole-4-carboxamide], for which the 50% inhibitory concentration (IC50) is above 40 µM in data set [1], below 0.01 µM in data set [3] and above 40 µM in data set [5]. Also, in data set [2], the concentration in solution (solubility at 24 h) came to 860 µg/mL (≈ 1460 µM). Further, the Cmax in data set [4] was 88 ng/mL.
For the compound `COCc1nn(Cc2ccc3c(c2)CNCC32CC2)cc1C(=O)NCc1c(-n2cc(C)nn2)ccc(OC)c1F` [Example 127, 1-{2′,3′-dihydro-1′H-spiro[cyclopropane-1,4′-isoquinoline]-7′-ylmethyl}-N-{[2-fluoro-3-methoxy-6-(4-methyl-1,2,3-triazol-1-yl)phenyl]methyl}-3-(methoxymethyl)pyrazole-4-carboxamide], the 50% inhibitory concentration (IC50) was above 40 µM in data set [1], below 0.01 µM in data set [3] and above 40 µM in data set [5]. The solubility at 24 h in data set [2] is 810 µg/mL (≈ 1480 µM). Moreover, the Cmax in data set [4] was determined as 9 ng/mL.
Take `COCc1nn(Cc2ccc3c(c2)CN(C)CC3)cc1C(=O)NCc1c(-n2cnc(C(F)F)n2)ccc(OC)c1F` [Example 15, N-({6-[3-(difluoromethyl)-1,2,4-triazol-1-yl]-2-fluoro-3-methoxyphenyl}methyl)-3-(methoxymethyl)-1-[(2-methyl-3,4-dihydro-1H-isoquinolin-7-yl)methyl]pyrazole-4-carboxamide]: the half-maximal inhibitory concentration (IC50) in data set [1] is above 40 µM; in data set [3] it was below 0.01 µM; in data set [5], above 40 µM. In data set [2], the solubility at 24 h is above 1000 µg/mL. The compound also registered a maximum concentration (Cmax) in data set [4] of 78 ng/mL.
`COCc1nn(Cc2ccc3c(c2)CN(C(C)C)C3)cc1C(=O)NCc1c(-n2cc(C)nn2)ccc(OC)c1F` [Example 55, N-{[2-Fluoro-3-methoxy-6-(4-methyl-1,2,3-triazol-1-yl)phenyl]methyl}-1-[(2-isopropyl-1,3-dihydroisoindol-5-yl)methyl]-3-(methoxymethyl)pyrazole-4-carboxamide] gave a solubility at 24 h in data set [2] above 1000 µg/mL. This compound also registered a Cmax in data set [4] of 136 ng/mL.
Regarding `COCc1nn(Cc2ccc3c(c2)CN(C)CC3)cc1C(=O)NCc1c(-n2cnc(C)n2)ccc(OC)c1F` [Example 4, N-{[2-fluoro-3-methoxy-6-(3-methyl-1,2,4-triazol-1-yl)phenyl]methyl}-3-(methoxymethyl)-1-[(2-methyl-3,4-dihydro-1H-isoquinolin-7-yl)methyl]pyrazole-4-carboxamide], the half-inhibitory concentration (IC50) in data set [1] was above 40 µM; in data set [3], below 0.01 µM; in data set [5] it was 1.03 µM. Besides, the solubility at 24 h in data set [2] is above 1000 µg/mL.
For `COc1ccc(-n2cc(C)nn2)c(CNC(=O)c2cn(Cc3cc4n(n3)CCN(C)C4)nc2C(F)F)c1F` [Example 136, 3-(difluoromethyl)-N-{[2-fluoro-3-methoxy-6-(4-methyl-1,2,3-triazol-1-yl)phenyl]methyl}-1-({5-methyl-4H,6H,7H-pyrazolo[1,5-a]pyrazin-2-yl}methyl)pyrazole-4-carboxamide], the IC50 is above 40 µM in data set [1], below 0.01 µM in data set [3] and above 40 µM in data set [5]. The solubility at 24 h in data set [2] was 730 µg/mL (≈ 1380 µM).
